Activity calls are given as the source filed them. No cut-off for these calls is given here.
Experiments:
NCI-H2228 [1] = test: Induction of cell cycle arrest in human NCI-H2228 cells assessed as decrease in S phase cells at 100 nM incubated for 48 hrs by PI/RNase staining based flow cytometry analysis (reference value: 34.90 %); assay type: functional; design: scale not given: the % may be the effect or the level left
[2] = Metabolic stability in Sprague-Dawley rat liver microsomes assessed as half-life at 10 uM preincubated for 5 mins in the presence of NADPH followed by microsomal addition and measured upto 60 mins by HPLC analysis; assay type: ADME, Microsome; conditions: time < 65 min
NCI-H2228 [3] = test: Induction of apoptosis in human NCI-H2228 cells assessed as early apoptotic cells at 25 nM incubated for 48 hrs by AnnexinV-FITC/propidium iodide staining based flow cytometry analysis (reference value: 2.45 %); assay type: functional
NCI-H2228 [4] = test: Induction of cell cycle arrest in human NCI-H2228 cells assessed as decrease in S phase cells at 50 nM incubated for 48 hrs by PI/RNase staining based flow cytometry analysis (reference value: 34.90 %); assay type: functional; design: scale not given: the % may be the effect or the level left
NCI-H2228 [5] = test: Induction of apoptosis in human NCI-H2228 cells assessed as viable cells at 100 nM incubated for 48 hrs by AnnexinV-FITC/propidium iodide staining based flow cytometry analysis (reference value: 92.3 %); assay type: functional; conditions: read-out: Activity
NCI-H2228 [6] = test: Induction of cell cycle arrest in human NCI-H2228 cells assessed as decrease in G2 phase cells at 100 nM incubated for 48 hrs by PI/RNase staining based flow cytometry analysis (reference value: 15.38 %); assay type: functional; design: scale not given: the % may be the effect or the level left
NCI-H2228 [7] = test: Induction of apoptosis in human NCI-H2228 cells assessed as late apoptotic cells at 25 nM incubated for 48 hrs by AnnexinV-FITC/propidium iodide staining based flow cytometry analysis (reference value: 4.72 %); assay type: functional
KARPAS-299 = test: Antiproliferative activity against NPM-ALK positive human KARPAS-299 cells assessed as inhibition of cell growth incubated for 72 hrs by MTT assay; assay type: functional, cell-based; conditions: KARPAS-299, 72 h
A549 = test: Antiproliferative activity against EGFR positive human A549 cells assessed as inhibition of cell growth incubated for 72 hrs by MTT assay; assay type: functional, cell-based; conditions: A549, 72 h
HCT-116 = test: cells; conditions: Homo sapiens, HCT-116, 72 h
Description: Antiproliferative activity against human HCT-116 cells assessed as inhibition of cell growth incubated for 72 hrs by MTT assay

NCI-H2228 [8] = test: Induction of apoptosis in human NCI-H2228 cells assessed as early apoptotic cells at 50 nM incubated for 48 hrs by AnnexinV-FITC/propidium iodide staining based flow cytometry analysis (reference value: 2.45 %); assay type: functional
NCI-H2228 [9] = test: Induction of apoptosis in human NCI-H2228 cells assessed as appearance of apoptotic bodies at 25 to 100 nM incubated for 48 hrs by Hoechst 33342 staining based fluorescence microscopic analysis; assay type: functional, cell-based; conditions: dose 25-100 nM
NCI-H2228 [10] = test: Induction of cell cycle arrest in human NCI-H2228 cells assessed as increase in G1 phase cells at 50 nM incubated for 48 hrs by PI/RNase staining based flow cytometry analysis (reference value: 49.72 %); assay type: functional
[11] = Antiproliferative activity against human HELF cells assessed as inhibition of cell growth incubated for 72 hrs by MTT assay; assay type: toxicity, cell-based
[12] = AUC (0 to t) in Sprague-Dawley rat at 10 mg/kg, po by LC-MS/MS analysis; assay type: ADME, organism-based; design: dose 10 mg/kg, route po; conditions: in vivo
NCI-H2228 [13] = test: Induction of apoptosis in human NCI-H2228 cells assessed as total apoptotic cells at 100 nM incubated for 48 hrs by AnnexinV-FITC/propidium iodide staining based flow cytometry analysis; assay type: functional
[14] = Oral bioavailability in Sprague-Dawley rat at 10 mg/kg by LC-MS/MS analysis; assay type: ADME, organism-based; conditions: in vivo
NCI-H1581 = test: Antiproliferative activity against human NC-H1581 cells assessed as inhibition of cell growth incubated for 72 hrs by MTT assay; assay type: functional, cell-based; conditions: NCI-H1581, 72 h
PC-3 = test: Antiproliferative activity against human PC-3 cells assessed as inhibition of cell growth incubated for 72 hrs by MTT assay; assay type: functional, cell-based; conditions: PC-3, 72 h
NCI-H2228 [15] = test: Induction of apoptosis in human NCI-H2228 cells assessed as chromatin condensation by measuring brilliant blue fluorescence at 25 to 100 nM incubated for 48 hrs by Hoechst 33342 staining based fluorescence microscopic analysis; assay type: functional, cell-based; conditions: dose 25-100 nM
NCI-H2228 [16] = test: Inhibition of cell migration in human NCI-H2228 cells measured at 24 to 48 hrs by inverted microscopic based cell scratch assay; assay type: functional; conditions: dose 2.5-10 nM, time 24-48 hrs, DDE = dose-dependent effect
NCI-H2228 [17] = test: Induction of apoptosis in human NCI-H2228 cells assessed as necrotic cells at 100 nM incubated for 48 hrs by AnnexinV-FITC/propidium iodide staining based flow cytometry analysis (reference value: 0.55 %); assay type: functional
[18] = Metabolic stability in Sprague-Dawley rat liver microsomes assessed as parent compound remaining preincubated for 5 mins in the presence of NADPH followed by microsomal addition and measured upto 60 mins by HPLC analysis; assay type: ADME, Microsome; conditions: time < 65 min, read-out: Stability
[19] = Clearance in Sprague-Dawley rat at 2 mg/kg, iv by LC-MS/MS analysis; assay type: ADME, organism-based; conditions: in vivo
[20] = Volume of distribution at steady state in Sprague-Dawley rat at 2 mg/kg, iv by LC-MS/MS analysis; assay type: ADME, organism-based; conditions: in vivo, read-out: Vdss
NCI-H2228 [21] = test: Induction of apoptosis in human NCI-H2228 cells assessed as necrotic cells at 50 nM incubated for 48 hrs by AnnexinV-FITC/propidium iodide staining based flow cytometry analysis (reference value: 0.55 %); assay type: functional
[22] = Antiproliferative activity […] EML4-ALK cells assessed as inhibition of cell growth incubated for 72 hrs by MTT assay; assay type: functional, cell-based
NCI-H2228 [23] = test: Inhibition of cell migration in human NCI-H2228 cells at 10 nM measured at 24 hrs by inverted microscopic based cell scratch assay relative to control; assay type: functional
BaF3 = test: Antiproliferative activity IL3 […] Ba/F3 cells assessed as inhibition of cell growth incubated for 72 hrs by MTT assay; assay type: functional, cell-based; conditions: Mus musculus, BaF3, 72 h
NCI-H2228 [24] = test: Inhibition of colony formation in human NCI-H2228 cells assessed as reduction in colony area at 50 nM incubated for 3 day by crystal violet staining based assay; assay type: functional; conditions: NCI-H2228, 72 h
[25] = Toxicity in BALB/c nude mouse xenografted with human NCI-H2228 cells assessed as effect on body weight at 25 to 50 mg/kg, IG administered every 2 days for 7 times; assay type: organism-based; conditions: in vivo, po, 48 h, dose 25-50 mg/kg, time 2 day
[26] = AUC (0 to t) in Sprague-Dawley rat at 2 mg/kg, iv by LC-MS/MS analysis; assay type: ADME, organism-based; design: dose 2 mg/kg, route iv; conditions: in vivo
NCI-H2228 [27] = test: Induction of cell cycle arrest in human NCI-H2228 cells assessed as decrease in G2 phase cells at 25 nM incubated for 48 hrs by PI/RNase staining based flow cytometry analysis (reference value: 15.38 %); assay type: functional; design: scale not given: the % may be the effect or the level left
[28] = target: ALK tyrosine kinase receptor (Homo sapiens, UniProt Q9UM73); test: Inhibition of ALK downstream signalling in human NCI-H2228 cells assessed as reduction in AKT level measured after 24 hrs by Western blot analysis; assay type: cell-based; conditions: dose 25-100 nM, DDE = dose-dependent effect
NCI-H2228 [29] = test: Inhibition of cell migration in human NCI-H2228 cells at 10 nM measured at 48 hrs by inverted microscopic based cell scratch assay relative to control; assay type: functional

Chain of ALK tyrosine kinase receptor (Q9UM73 19-1620 limits assumed): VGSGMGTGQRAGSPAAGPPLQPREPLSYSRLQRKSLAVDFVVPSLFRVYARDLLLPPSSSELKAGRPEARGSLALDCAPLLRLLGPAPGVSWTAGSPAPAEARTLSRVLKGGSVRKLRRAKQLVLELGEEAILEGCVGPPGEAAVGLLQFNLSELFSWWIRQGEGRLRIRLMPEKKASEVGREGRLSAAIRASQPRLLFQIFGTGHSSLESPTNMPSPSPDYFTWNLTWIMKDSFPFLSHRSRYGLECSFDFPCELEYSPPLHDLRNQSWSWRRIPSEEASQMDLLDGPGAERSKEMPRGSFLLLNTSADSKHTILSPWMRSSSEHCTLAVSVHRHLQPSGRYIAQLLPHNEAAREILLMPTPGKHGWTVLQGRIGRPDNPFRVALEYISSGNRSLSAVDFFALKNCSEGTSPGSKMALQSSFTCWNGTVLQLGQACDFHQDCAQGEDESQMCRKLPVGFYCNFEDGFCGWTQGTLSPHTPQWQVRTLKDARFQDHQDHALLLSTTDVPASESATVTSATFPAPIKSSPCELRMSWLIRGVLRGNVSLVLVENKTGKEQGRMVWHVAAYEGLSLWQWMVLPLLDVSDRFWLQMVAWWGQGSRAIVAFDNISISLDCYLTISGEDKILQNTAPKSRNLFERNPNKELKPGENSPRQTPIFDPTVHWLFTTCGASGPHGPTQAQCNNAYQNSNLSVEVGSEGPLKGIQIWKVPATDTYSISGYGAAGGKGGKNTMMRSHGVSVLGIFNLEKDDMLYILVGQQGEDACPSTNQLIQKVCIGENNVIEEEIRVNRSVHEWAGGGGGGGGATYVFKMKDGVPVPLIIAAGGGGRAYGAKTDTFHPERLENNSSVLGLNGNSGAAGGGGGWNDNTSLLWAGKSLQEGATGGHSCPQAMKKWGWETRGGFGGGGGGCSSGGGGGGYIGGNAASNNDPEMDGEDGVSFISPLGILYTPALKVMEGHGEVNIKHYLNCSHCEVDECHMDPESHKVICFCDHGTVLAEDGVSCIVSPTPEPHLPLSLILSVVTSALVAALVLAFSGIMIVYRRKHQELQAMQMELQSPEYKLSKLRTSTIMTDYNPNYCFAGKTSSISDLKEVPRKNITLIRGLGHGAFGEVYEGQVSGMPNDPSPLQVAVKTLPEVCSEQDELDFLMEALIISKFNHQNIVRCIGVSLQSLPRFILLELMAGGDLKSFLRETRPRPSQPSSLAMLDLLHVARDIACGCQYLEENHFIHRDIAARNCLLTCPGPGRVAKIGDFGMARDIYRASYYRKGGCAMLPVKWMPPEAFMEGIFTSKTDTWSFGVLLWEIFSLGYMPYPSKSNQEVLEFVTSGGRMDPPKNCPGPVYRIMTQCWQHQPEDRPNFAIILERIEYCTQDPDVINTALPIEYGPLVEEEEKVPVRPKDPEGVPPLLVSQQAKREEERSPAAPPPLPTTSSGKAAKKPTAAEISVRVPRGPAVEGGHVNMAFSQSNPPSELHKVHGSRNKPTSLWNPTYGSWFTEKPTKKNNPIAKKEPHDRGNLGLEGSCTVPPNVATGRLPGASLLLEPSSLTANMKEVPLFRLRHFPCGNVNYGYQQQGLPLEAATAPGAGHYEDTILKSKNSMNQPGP

## CNC(=O)c1ccccc1Nc1nc(Nc2ccc3c(C(=O)N(C)C)c(C)[nH]c3c2)ncc1Cl
NCI-H2228 [1]
  Activity: 29.32%
[2]
  half-life at 10 µM: 36.2 min
NCI-H2228 [3]
  Activity: 3.73%
NCI-H2228 [4]
  Activity: 32.28%
NCI-H2228 [5]
  viability at 0.1 µM: 68.6%
NCI-H2228 [6]
  Activity: 12.18%
NCI-H2228 [7]
  Activity: 10.5%
KARPAS-299
  IC50: 11 nM
A549
  IC50: 2390 nM
HCT-116
  IC50: 1340 nM
NCI-H2228 [8]
  Activity: 7.44%
NCI-H2228 [9]
  Activity: Active
NCI-H2228 [10]
  Activity: 54.44%
[11]
  IC50 at 72 h: > 10 µM
[12]
  AUC(0-t): 1720 ng·h/mL
NCI-H2228 [13]
  Activity: 31.7%
[14]
  bioavailability: 38.2%
NCI-H1581
  IC50: 957 nM
PC-3
  IC50: 1380 nM
NCI-H2228 [15]
  Activity: Active
NCI-H2228 [16]
  inhibition: Dde
NCI-H2228 [17]
  Activity: 1.71%
[18]
  remaining at 1 h: 29.7%
[19]
  clearance: 36.2 mL/min/kg
[20]
  Vd: 7.9 L/kg
NCI-H2228 [21]
  Activity: 1.66%
[22]
  IC50: 21 nM
NCI-H2228 [23]
  inhibition at 0.01 µM: 3.6%
BaF3
  IC50: > 1000 nM
NCI-H2228 [24]
  inhibition at 0.05 µM: 50%
[25]
  Activity: Non-Toxic
[26]
  AUC(0-t): 879 ng·h/mL
NCI-H2228 [27]
  Activity: 12.23%
[28]
  inhibition: Dde
NCI-H2228 [29]
  inhibition at 0.01 µM: 4.5%
